Results taken from PMC8950173 (Pharmaceuticals, 2022).

How the values were obtained:
human recombinant HDAC6 = target: T1, human recombinant HDAC6 (Homo sapiens, UniProt Q9UBN7); experiment: Inhibition assay HDAC6 (fluorogenic substrate ZMAL); format: biochemical; conditions: from IC50 values
T1 construct: purchased BPS Bioscience Inc. 50006
T1 sequence (Q9UBN7 1-1215): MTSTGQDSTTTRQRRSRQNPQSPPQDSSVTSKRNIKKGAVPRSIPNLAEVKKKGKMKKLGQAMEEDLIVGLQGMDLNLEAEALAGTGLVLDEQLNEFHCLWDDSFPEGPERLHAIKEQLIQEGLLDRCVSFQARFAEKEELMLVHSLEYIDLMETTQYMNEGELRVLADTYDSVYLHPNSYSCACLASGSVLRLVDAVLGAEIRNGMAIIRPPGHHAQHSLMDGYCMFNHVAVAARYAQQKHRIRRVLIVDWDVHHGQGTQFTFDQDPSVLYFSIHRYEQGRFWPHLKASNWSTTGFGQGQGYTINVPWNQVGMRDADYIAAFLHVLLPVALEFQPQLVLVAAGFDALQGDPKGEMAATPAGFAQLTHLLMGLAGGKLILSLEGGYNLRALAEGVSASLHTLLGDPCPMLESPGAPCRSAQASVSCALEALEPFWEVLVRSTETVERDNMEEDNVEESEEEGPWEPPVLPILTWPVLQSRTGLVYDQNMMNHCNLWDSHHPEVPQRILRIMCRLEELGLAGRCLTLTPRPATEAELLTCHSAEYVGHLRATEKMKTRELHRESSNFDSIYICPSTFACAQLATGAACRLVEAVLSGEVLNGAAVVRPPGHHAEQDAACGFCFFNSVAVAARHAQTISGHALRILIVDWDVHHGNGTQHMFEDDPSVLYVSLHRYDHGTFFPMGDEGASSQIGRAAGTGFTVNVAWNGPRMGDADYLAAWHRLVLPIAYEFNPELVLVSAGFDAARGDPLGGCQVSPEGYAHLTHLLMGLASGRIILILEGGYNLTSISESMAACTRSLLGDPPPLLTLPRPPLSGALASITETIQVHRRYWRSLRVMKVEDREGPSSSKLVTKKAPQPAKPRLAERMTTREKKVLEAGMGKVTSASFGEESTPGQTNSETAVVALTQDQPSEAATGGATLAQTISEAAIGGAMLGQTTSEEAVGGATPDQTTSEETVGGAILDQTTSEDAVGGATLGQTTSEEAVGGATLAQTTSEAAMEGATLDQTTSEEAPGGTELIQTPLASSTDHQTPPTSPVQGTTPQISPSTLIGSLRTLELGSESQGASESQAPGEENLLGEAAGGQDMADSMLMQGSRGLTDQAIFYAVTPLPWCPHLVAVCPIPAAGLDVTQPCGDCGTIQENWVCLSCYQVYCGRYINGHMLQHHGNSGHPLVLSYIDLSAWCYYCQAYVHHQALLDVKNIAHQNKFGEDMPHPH
Description: (§1) In vitro inhibitory activities against HDAC1−3 and HDAC6 were measured as previously published with minor modifications. […] Subsequently, 50 µL trypsin solution (0.4 mg/mL trypsin in buffer: 50 mM Tris−HCl, pH = 8.0, 100 mM NaCl) was added, followed by additional 30 min of incubation at 37 °C. […] All compounds were tested at least twice in duplicates.

[1] = target: T2, P-glycoprotein (P-gp) efflux transporter (Mus musculus, UniProt P21447); experiment: P-gp efflux transporter PET study with cyclosporine A pre-treatment; format: in vivo; conditions: for initial brain uptake: n = 2
T2 construct: from tissue; host or cells: living CD-1 mice, brain / blood-brain barrier
T2 sequence (P21447 whole entry): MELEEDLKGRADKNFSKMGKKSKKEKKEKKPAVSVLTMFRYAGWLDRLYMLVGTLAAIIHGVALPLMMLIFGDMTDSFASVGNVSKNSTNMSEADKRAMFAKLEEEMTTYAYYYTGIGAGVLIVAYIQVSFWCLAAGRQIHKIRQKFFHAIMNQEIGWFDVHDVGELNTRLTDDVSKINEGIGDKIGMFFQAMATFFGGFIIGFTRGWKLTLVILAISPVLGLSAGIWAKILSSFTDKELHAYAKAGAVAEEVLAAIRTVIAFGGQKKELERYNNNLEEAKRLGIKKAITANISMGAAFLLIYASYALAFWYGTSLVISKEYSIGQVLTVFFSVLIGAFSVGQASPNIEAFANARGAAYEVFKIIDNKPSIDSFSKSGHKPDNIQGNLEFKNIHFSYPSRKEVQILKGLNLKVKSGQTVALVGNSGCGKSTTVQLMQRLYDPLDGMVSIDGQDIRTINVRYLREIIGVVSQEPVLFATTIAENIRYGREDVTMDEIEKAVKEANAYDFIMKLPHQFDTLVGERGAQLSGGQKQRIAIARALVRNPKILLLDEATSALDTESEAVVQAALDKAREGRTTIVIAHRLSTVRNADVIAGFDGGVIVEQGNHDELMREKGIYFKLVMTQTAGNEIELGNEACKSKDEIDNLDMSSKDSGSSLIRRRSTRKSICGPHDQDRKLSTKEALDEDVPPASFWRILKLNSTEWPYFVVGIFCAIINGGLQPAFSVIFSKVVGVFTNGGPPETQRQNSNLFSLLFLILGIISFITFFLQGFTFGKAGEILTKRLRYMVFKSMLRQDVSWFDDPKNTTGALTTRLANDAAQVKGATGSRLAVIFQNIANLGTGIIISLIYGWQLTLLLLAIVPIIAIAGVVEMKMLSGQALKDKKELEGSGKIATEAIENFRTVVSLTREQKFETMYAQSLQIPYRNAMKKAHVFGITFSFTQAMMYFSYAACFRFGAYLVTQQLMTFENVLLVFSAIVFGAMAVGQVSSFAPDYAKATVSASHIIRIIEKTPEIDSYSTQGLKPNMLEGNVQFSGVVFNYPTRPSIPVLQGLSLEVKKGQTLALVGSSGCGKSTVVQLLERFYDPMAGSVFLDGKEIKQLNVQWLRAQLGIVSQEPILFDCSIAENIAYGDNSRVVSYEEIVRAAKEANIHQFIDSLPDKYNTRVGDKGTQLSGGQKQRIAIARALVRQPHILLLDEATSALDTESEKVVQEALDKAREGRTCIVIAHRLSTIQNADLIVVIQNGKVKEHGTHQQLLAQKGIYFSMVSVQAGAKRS
Description: For the time of the experiments, female CD-1 mice (n = 6; 8–15 weeks; 29–43 g) were kept in a dedicated climatic chamber with free access to water and food under a 12:12 h dark:light cycle at a constant temperature (24 °C). The animals were anaesthetized (Anaesthesia Unit U-410, agntho’s, Lidingö, Sweden) with isoflurane (2.0%, 300 mL/min) delivered in a 60% oxygen/40% air mixture (Gas Blender 100 Series, MCQ instruments, Rome, Italy) and their body temperature maintained at 37 °C with a thermal bed system. For baseline studies [^18F]BA3 was injected into the tail vein (n = 2; 6.0 ± 0.6 MBq in 150 µL isotonic saline; 9.2 ± 0.7 nmol/kg; Am: 21 GBq/μmol, EOS) followed by a dynamic 60 min PET/MR scan (Mediso nanoScan®, Budapest, Hungary). Permeability-glycoprotein efflux transporter studies consisted in pre-treatment via i.v. injection of cyclosporine A (50 mg/kg in NaCl/DMSO/kolliphor, 7:1:2, v/v; n = 2) or of vehicle (NaCl/DMSO/kolliphor, 7:1:2, v/v; n = 2) 30 min prior to [^18F]BA3 (6.0 ± 0.9 MBq; 4.9 ± 0.7 nmol/kg; Am: 32–37 GBq/μmol, EOS). Each PET image was corrected for random coincidences, dead time, scatter and attenuation (AC), based on a whole body (WB) MR scan. The reconstruction parameters for the list mode data were 3D-ordered subset expectation maximization (OSEM), 4 iterations, 6 subsets, energy window: 400–600 keV, coincidence mode: 1–5, ring difference: 81. The mice were positioned prone in a special mouse bed (heated up to 37 °C), with the head fixed to a mouth piece for the anaesthetic gas supply with isoflurane in 40% air and 60% oxygen. The PET data were collected by a continuous WB scan during the entire investigation. Following the 60 min PET scan a T1 weighted WB gradient echo sequence (TR/TE: 20/6.4 ms, NEX: 1, FA: 25, FOV: 64 × 64 mm, Matrix: 128 × 128, STh: 0.5 mm) was performed for AC and anatomical orientation. […]. The respective brain regions were identified using the mouse brain atlas template Ma-Benveniste-Mirrione-FDG. The activity data are expressed as mean SUV of the overall ROI.

Radiochemical stability = format: physicochemical; conditions: room temperature, more than two hours
Description: Radiochemical stability of [^18F]BA3 was investigated in 0.9% NaCl solution (containing 10% EtOH) and in n-octanol at room temperature for 2 h. Samples were analysed by radio-RP-HPLC (see quality control). The LogD7.4 value of [^18F]BA3 was experimentally determined in n-octanol/phosphate-buffered saline (PBS, pH = 7.4) at room temperature by the shake-flask method as described previously. Briefly, small tracer amounts (~800 kBq) were added to a mixture of 3 mL n-octanol and 3 mL PBS. After shaking for 20 min, the samples were centrifuged (10,000 rpm, 5 min) and 1 mL aliquots of the organic as well as aqueous layer were taken and measured in a gamma counter (1480 WIZARD, Perkin Elmer, Turku, Finland). Another 1 mL aliquot of the organic layer was mixed with 2 mL n-octanol and 3 mL PBS and subjected to the same procedure until constant partition coefficient values had been obtained. The measurement was performed twice in quadruplicate.

human recombinant HDAC2 = target: T3, human recombinant HDAC2 (Homo sapiens, UniProt Q92769); experiment: Inhibition assay HDAC2 (fluorogenic substrate ZMAL); format: biochemical; conditions: 60 min preincubation at 25 °C
T3 construct: purchased BPS Bioscience Inc. 50052
T3 sequence (Q92769 whole entry): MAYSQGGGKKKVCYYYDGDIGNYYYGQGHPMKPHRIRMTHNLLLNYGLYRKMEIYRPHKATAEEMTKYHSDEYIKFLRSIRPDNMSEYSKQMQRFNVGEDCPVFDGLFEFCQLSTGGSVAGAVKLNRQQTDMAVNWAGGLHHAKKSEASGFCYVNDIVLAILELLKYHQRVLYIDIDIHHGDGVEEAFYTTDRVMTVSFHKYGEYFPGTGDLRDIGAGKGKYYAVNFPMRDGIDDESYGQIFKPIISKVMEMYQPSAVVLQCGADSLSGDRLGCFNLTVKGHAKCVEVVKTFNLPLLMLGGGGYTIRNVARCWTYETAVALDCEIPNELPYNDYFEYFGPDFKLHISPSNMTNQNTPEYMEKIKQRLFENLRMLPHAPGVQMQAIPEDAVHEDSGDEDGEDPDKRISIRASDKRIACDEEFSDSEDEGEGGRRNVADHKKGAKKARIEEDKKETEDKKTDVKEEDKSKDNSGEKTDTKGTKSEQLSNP
Description: as §1

With `CC([18F])C(=O)NCc1ccc(C(=O)Nc2cc(-c3ccsc3)ccc2N)cc1` (centres unmarked) [[^18F]BA3] the “specificity ratio HDAC1 over HDAC6” value (human recombinant HDAC6) was over 2080, the P-gp substrate status ([1]; concluded from cyclosporine A pre-administration) was “substrate of P-gp” and the “increase of initial brain uptake by cyclosporine A” value ([1]; cyclosporine A vs vehicle pre-administration) was “about factor two”. For the same molecule, the initial brain uptake ([1]; pre-administration of cyclosporine A 50 mg/kg i.v. 30 min before tracer) was 0.42 SUV, the initial brain uptake ([1]; pre-administration of vehicle 30 min before tracer) was 0.18 SUV and the “radiochemical purity (stability)” value (Radiochemical stability; in n-octanol) was over 99%. The “radiochemical purity (stability)” value (Radiochemical stability; in saline formulation containing 10% EtOH) was over 99% and the IC50 (human recombinant HDAC2) was 39.9 ± 3.2 nM.
